Measurements published in patent US5614512A, “20-Oxo-pregnacalciferol analogs with binding affinity to the progesterone receptor” (Wisconsin Alumni Research Foundation, priority 1995, dated 1997).

Assays:
[1] = test system: calcium homeostasis; settings: in animals and humans; cited from earlier work
[2] = test system: progesterone receptor (PR); settings: U.S. Pat. No. 5,397,776; cited from earlier work
[3] = test system: vitamin D receptor; settings: U.S. Pat. No. 5,397,776; cited from earlier work
[4] = U.S. Pat. No. 5,397,776; cited from earlier work
[5] = molecular target: T1, progesterone receptor (Homo sapiens, UniProt P06401); test: Competitive binding of test compounds vs 3H-R5020 to the progesterone receptor (MCF-7 cytosol); settings: for Total Binding (DPM) ± S.D.: 3H-R5020 (20 nM) bound; for Total Binding (DPM) ± S.D. / inhibition: competitor at 400× fold excess, 12-14 hours on ice; for binding to the PR (in words): compared with 20-oxopregnacalciferol where stated; for inhibition: of 3H-R5020 (20 nM) binding
T1 construct: The source of the progesterone receptor is the cytosolic fraction of MCF-7 cells (human breast cancer cell line); endogenous in cells; host or cells: MCF-7 cells (human breast adenocarcinoma), cytosolic fraction, 10 nM estradiol for 24 h before harvest
T1 sequence (P06401 1-933): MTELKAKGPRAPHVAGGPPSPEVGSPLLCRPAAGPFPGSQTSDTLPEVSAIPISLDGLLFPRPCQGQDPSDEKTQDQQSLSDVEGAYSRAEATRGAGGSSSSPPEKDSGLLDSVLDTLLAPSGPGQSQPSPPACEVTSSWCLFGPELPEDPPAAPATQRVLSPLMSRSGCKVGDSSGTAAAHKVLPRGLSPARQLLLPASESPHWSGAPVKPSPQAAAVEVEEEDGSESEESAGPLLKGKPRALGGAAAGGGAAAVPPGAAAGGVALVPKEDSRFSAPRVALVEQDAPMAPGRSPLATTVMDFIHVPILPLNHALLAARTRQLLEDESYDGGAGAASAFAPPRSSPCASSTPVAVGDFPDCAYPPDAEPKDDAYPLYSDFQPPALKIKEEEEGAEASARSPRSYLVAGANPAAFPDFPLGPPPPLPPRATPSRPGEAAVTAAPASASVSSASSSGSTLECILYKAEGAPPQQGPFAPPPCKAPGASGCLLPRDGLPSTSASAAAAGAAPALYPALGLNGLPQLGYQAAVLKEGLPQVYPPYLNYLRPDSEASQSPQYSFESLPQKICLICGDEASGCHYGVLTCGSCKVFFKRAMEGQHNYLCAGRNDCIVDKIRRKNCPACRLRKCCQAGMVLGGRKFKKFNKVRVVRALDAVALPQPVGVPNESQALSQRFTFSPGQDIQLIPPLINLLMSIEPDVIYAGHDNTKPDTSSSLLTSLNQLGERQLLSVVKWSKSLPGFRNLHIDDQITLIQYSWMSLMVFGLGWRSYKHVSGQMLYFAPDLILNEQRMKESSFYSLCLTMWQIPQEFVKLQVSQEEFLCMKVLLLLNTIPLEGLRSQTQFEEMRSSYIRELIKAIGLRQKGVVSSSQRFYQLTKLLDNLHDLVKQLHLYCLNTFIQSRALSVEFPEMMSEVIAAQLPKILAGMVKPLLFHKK
Procedure: Cell culture and extract preparation: Human Breast Adenocarcinoma cells (MCF-7 cells) extract is used as the progesterone receptor source. The cells were grown to confluency in phenol red-free DMEM with 10% calf serum. After replacing the medium, the cells were dosed with 10 nM Estradiol and incubated for an additional 24 hours to induce the expression of the progesterone receptor. The cells were washed with Hanks Balanced Salt Solution (HBSS: 5.0 mM KCl, 0.3 mM KH2 PO4, 138 mM NaCl, 4.0 mM NaHCO3, 0.3 mM Na2HPO4, 5.6 mM D-Glucose, 1.3 mM CaCl2 and 0.5 mM MgCl2.6H2O) and then incubated with Ca/Mg-free HBSS+1 mM EDTA for 5-10 minutes at 37° C. After harvesting, the cells were pelleted by centifugation for 5.0 minutes at 4.0° C. The cell pellet was then resuspended in TDG buffer (10 mM Tris-HCl, pH 7.4, 0.5 mM DTT and 50% Glycerol) and sonicated for 15 seconds. The cytosolic fraction was obtained by centrifugation at 50,000 RPM for 20 minutes in TLA 100.2 rotor. The supernatent (cytosol) was removed and stored on ice for use in the binding assay. The Cytosolic fraction was always prepared fresh. Binding Assay: The ability of the test compounds to compete for binding to the progesterone receptor was tested as follows: 1--The incubation mix consisted of the following: 100 μl 3H-R5020 (20 nM) 5 μl Ethanol or test compound in the ethanol providing a 400 fold excess of compound 100 μl MCF-7 Cell Extract 2--The mixture was incubated 12-14 hours on ice. 3--250 μl of 50% HAP slurry was added+3 mL of TDG buffer. 4--The samples are allowed to sit on ice for 30 minutes with vortexing every 10 minutes. 5--The HAP was pelleted by centrifugation at 1500 rpms for 3 minutes. 6--The pellet was washed three more times with TDG buffer. 7--The final pellet was resuspended in 1 ml Ethanol, vortexed and allowed to sit at room temperature for 30 minutes with vortexing every 10 minutes. 8--The samples were finally centrifuged at 2000 rpms. The supernatent was removed, mixed with counting fluid and the amount of radioactivity in each sample was determined by counting in a beta scintillation counter. 1--The source of the progesterone receptor is the cytosolic fraction of MCF-7 cells (human breast cancer cell line) which were dosed with Estradiol 24 hours prior to harvesting and processing. 2--The cytosolic fractions used in all the binding measurements were freshly prepared. No frozen extracts were used. 3--All competitive compounds were added at 400× fold excess of the labelled R5020.

[6] = test system: progesterone; settings: Teutsch et al, U.S. Pat. No. 4,386,085; cited from earlier work
[7] = test system: glucocorticosteroid; settings: Teutsch et al, U.S. Pat. No. 4,386,085; cited from earlier work
[8] = test system: pregnancy; settings: used in conjunction with synthetic prostaglandins; cited from earlier work

Row | Structure (SMILES) | Total Binding (DPM) ± S.D. [5] [DPM] | binding to the PR (in words) [5] | inhibition [5] [%] | other results
1 | C=C1/C(=C\C=C2/CCC[C@]3(C)[C@@H]([C@H](C)/C=C/[C@H](C)C(C)(C)O)CC[C@@H]23)C[C@@H](O)C[C@@H]1O [1α,25-dihydroxyvitamin D2] | – | – | – | regulation of calcium homeostasis (in words) [1]: highly potent regulators of calcium homeostasis
2 | C=C1/C(=C\C=C2/CCC[C@]3(C)[C@@H]([C@H](C)CCCC(C)(C)O)CC[C@@H]23)C[C@@H](O)C[C@@H]1O [1α,25-dihydroxyvitamin D3] | – | – | – | regulation of calcium homeostasis (in words) [1]: highly potent regulators of calcium homeostasis
3 | C=C1/C(=C\C=C2/CCC[C@]3(C)[C@@H](C(C)=O)CC[C@@H]23)C[C@@H](O)C[C@@H]1O [1α-hydroxy-20-oxopregnacaliciferol] | – | – | – | binding to the PR (in words) [2]: prevents binding to the PR; binding to the vitamin D receptor (in words) [3]: nor did they bind to the vitamin D receptor; calcemic activity (in words) [4]: None of the above three compounds had any calcemic activity
4 | C[C@H](CO)[C@H]1CC[C@H]2/C(=C/C=C3CCCCC3)CCC[C@]12C [4a, 19-Nor-3-desoxy-22-hydroxy-homopregnacalciferol] | 4139 ± 62 | did also bind to the PR | 13 | –
5 | C[C@H](CO)[C@H]1CC[C@H]2/C(=C/C=C3CCC4(CC3)OCCO4)CCC[C@]12C [4b, 19-Nor-3-desoxy-2-ethylene ketal-22-hydroxyhomopregnacalciferol] | 2881 ± 152 | did also bind to the PR but to a lesser degree | 40 | –
6 | C[C@H](C=O)[C@H]1CC[C@H]2/C(=C/C=C3CCCCC3)CCC[C@]12C [5a, 19-Nor-3-desoxy-homopregnacalciferol 22-aldehyde] | 3045 ± 90 | did also bind to the PR | 36 | binding to the PR, times more than the 20-ketone 6a ([5]; compared with 20-ketone 6a): 1.5 times
7 | C[C@H](C=O)[C@H]1CC[C@H]2/C(=C/C=C3CCC4(CC3)OCCO4)CCC[C@]12C [5b, 19-Nor-3-desoxy-2-ethylene ketal-homopregnacalciferol 22-aldehyde] | 2546 ± 120 | did also bind to the PR but to a lesser degree | 47 | –
8 | CC(=O)[C@H]1CC[C@H]2/C(=C/C=C3CCCCC3)CCC[C@]12C [6a, 19-Nor-3-desoxy-20-oxopregnacalciferol] | 3616 ± 171 | – | 24 | binding to the PR, lesser degree than 20-oxopregnacalciferol ([5]; compared with previously synthesized 20-oxopregnacalciferol): 40%
9 | CC(=O)[C@H]1CC[C@H]2/C(=C/C=C3CCC4(CC3)OCCO4)CCC[C@]12C [6b, 19-Nor-3-desoxy-2-ethylene ketal-20-oxopregna-calciferol] | 2531 ± 165 | did also bind to the PR but to a lesser degree | 47 | –
10 | CC(=O)[C@H]1CC[C@H]2/C(=C/C=C3CCC(=O)CC3)CCC[C@]12C [6c, 19-Nor-3-desoxy-2,20-dioxopregnacalciferol] | 2036 ± 133 | almost the same binding activity to the PR | 58 | –
11 | CC(=O)[C@H]1CC[C@H]2/C(=C/C=C3C[C@@H](O)C[C@H](O)C3)CCC[C@]12C [19-nor-1α-hydroxy-20-oxopregnacalciferol] | – | – | – | binding to the PR (in words) [2]: prevents binding to the PR; binding to the vitamin D receptor (in words) [3]: nor did they bind to the vitamin D receptor; calcemic activity (in words) [4]: None of the above three compounds had any calcemic activity
12 | C=C1CC[C@H](O)C/C1=C/C=C1\CCC[C@]2(C)[C@@H](C(C)=O)CC[C@@H]12 [20-oxopregnacalciferol, 20-oxo-pregnacalciferol] | 1950 ± 170 | – | 59 | binding to the PR (in words) [2]: did bind to the PR; binding to the vitamin D receptor (in words) [3]: nor did they bind to the vitamin D receptor; calcemic activity (in words) [4]: None of the above three compounds had any calcemic activity
13 | CCC(=O)[C@@]1(C)CC[C@H]2[C@@H]3CCC4=CC(=O)CCC4=C3CC[C@@]21C [R5020, reference compound] | 750 ± 231 | – | – | –
14 | CC#C[C@]1(O)CC[C@H]2[C@@H]3CCC4=CC(=O)CCC4=C3[C@@H](c3ccc(N(C)C)cc3)C[C@@]21C [RU 486] | – | – | – | antiprogesterone activity (in words) [6]: strong; antiglucocorticosteroid activity (in words) [7]: strong; termination of pregnancy (in words) [8]: terminates pregnancy
